Values of other authors, collected in US6316473A, “Two surfactant-containing medicinal composition” (Fujisawa Pharmaceutical Co., Ltd., priority 1997, dated 2001).

Details: stated as well known

## C=CC[C@@H]1/C=C(\C)C[C@H](C)C[C@H](OC)[C@H]2O[C@@](O)(C(=O)C(=O)N3CCCC[C@H]3C(=O)O[C@H](/C(C)=C/[C@@H]3CC[C@@H](O)[C@H](OC)C3)[C@H](C)[C@@H](O)CC1=O)[C@H](C)C[C@@H]2OC [FK506, 17-allyl-1,14-dihydroxy-12-[2-(4-hydroxy-3-methoxycyclohexyl)-1-methylvinyl]-23,25-dimethoxy-13,19,21,27-tetramethyl-11,28-dioxa-4-azatricyclo[22.3. 1.0 4,9]octacos-18-ene-2,3,10,16-tetraone]
  solubility in water: only sparingly soluble in water
